Experimental data taken from PubChem BioAssay (NCI).
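GI50 = concentration required for 50% inhibition of growth. TGI: concentration producing complete growth inhibition.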

Columns and labels:
Assay in all cases: NCI anticancer screen, dose series, 384-well format
[1] = tested on: HCC-2998 colon
[2] = tested on: A498 renal
[3] = tested on: HL-60(TB) leukemia
[4] = tested on: SK-OV-3 ovarian
[5] = tested on: K-562 leukemia
[6] = tested on: PC-3 prostate
[7] = tested on: NCI/ADR-RES ovarian
[8] = tested on: OVCAR-8 ovarian
[9] = tested on: SK-MEL-28 melanoma
[10] = tested on: LOX IMVI melanoma
[11] = tested on: ACHN renal
[12] = tested on: U251 glioblastoma
[13] = tested on: CCRF-CEM leukemia
[14] = tested on: OVCAR-3 ovarian
[15] = tested on: HS 578T breast
[16] = tested on: NCI-H460 NSCLC
[17] = tested on: SK-MEL-5 melanoma
[18] = tested on: RXF 393 renal
[19] = tested on: HOP-92 NSCLC
[20] = tested on: NCI-H226 lung
[21] = tested on: NCI-H522 lung
[22] = tested on: BT-549 breast
[23] = tested on: SF-295 CNS
[24] = tested on: KM12 colon
[25] = tested on: SF-268 CNS
[26] = tested on: SW-620 colon
[27] = tested on: SR leukemia
[28] = tested on: 786-0 renal
[29] = tested on: NCI-H23 lung
[30] = tested on: UO-31 renal
[31] = tested on: MOLT-4 leukemia
[32] = tested on: SNB-19 CNS
[33] = tested on: SF-539 CNS
[34] = tested on: HT29 colon
[35] = tested on: HCT-116 colon
[36] = tested on: HCT-15 colon
[37] = tested on: A549 NSCLC
[38] = tested on: TK-10 renal
[39] = tested on: HOP-62 NSCLC
[40] = tested on: MDA-MB-468 breast
[41] = tested on: CAKI-1 renal
[42] = tested on: M14 melanoma
[43] = tested on: EKVX NSCLC
[44] = tested on: MDA-MB-435 melanoma
[45] = tested on: DU-145 prostate
[46] = tested on: IGROV1 ovarian
[47] = tested on: MCF7 breast
[48] = tested on: SN12C renal
[49] = tested on: MDA-MB-231 breast
[50] = tested on: COLO 205 colon
[51] = tested on: OVCAR-4 ovarian
[52] = tested on: RPMI-8226 leukemia
[53] = tested on: MALME-3M melanoma
[54] = tested on: UACC-257 melanoma
[55] = tested on: UACC-62 melanoma
[56] = tested on: T-47D breast
[57] = tested on: SNB-75 CNS
[58] = tested on: NCI-H322M lung
[59] = tested on: OVCAR-5 ovarian

## CC(C)c1c(-c2ccccc2)nc2c(C#N)c[nH]n2c1=O
[1]
  GI50: 44.9 µM
  TGI: > 100 µM
[2]
  GI50: 40.2 µM
  TGI: > 100 µM
[3]
  GI50: 12.2 µM
  TGI: 25.7 µM
[4]
  GI50: 36.8 µM
  TGI: > 100 µM
[5]
  GI50: 37.7 µM
  TGI: > 100 µM
[6]
  GI50: 37.2 µM
  TGI: > 100 µM
[7]
  GI50: 27.5 µM
  TGI: 69.5 µM
[8]
  GI50: 37.6 µM
  TGI: > 100 µM
[9]
  GI50: 28.5 µM
  TGI: 96.8 µM
[10]
  GI50: 21.1 µM
  TGI: 41.9 µM
[11]
  GI50: 38.3 µM
  TGI: > 100 µM
[12]
  GI50: 34.4 µM
  TGI: > 100 µM
[13]
  GI50: 20.8 µM
  TGI: 42.4 µM
[14]
  GI50: 18 µM
  TGI: 36.3 µM
[15]
  GI50: 37.7 µM
  TGI: > 100 µM
[16]
  GI50: 27.4 µM
  TGI: 65.3 µM
[17]
  GI50: 19.4 µM
  TGI: 35.6 µM
[18]
  GI50: 28.6 µM
  TGI: > 100 µM
[19]
  GI50: 30.5 µM
  TGI: 89 µM
[20]
  GI50: 27 µM
  TGI: 70.9 µM
[21]
  GI50: 19 µM
  TGI: 37.6 µM
[22]
  GI50: 39.9 µM
  TGI: > 100 µM
[23]
  GI50: 22.9 µM
  TGI: 62.4 µM
[24]
  GI50: 30.8 µM
  TGI: > 100 µM
[25]
  GI50: 36.6 µM
  TGI: > 100 µM
[26]
  GI50: 38.8 µM
  TGI: > 100 µM
[27]
  GI50: 25.2 µM
  TGI: 41.2 µM
[28]
  GI50: 33.6 µM
  TGI: > 100 µM
[29]
  GI50: 20.3 µM
  TGI: 44.5 µM
[30]
  GI50: 38.9 µM
  TGI: > 100 µM
[31]
  GI50: 16.2 µM
  TGI: 29.9 µM
[32]
  GI50: 43.6 µM
  TGI: > 100 µM
[33]
  GI50: 34.2 µM
  TGI: > 100 µM
[34]
  GI50: 38 µM
  TGI: > 100 µM
[35]
  GI50: 34.5 µM
  TGI: > 100 µM
[36]
  GI50: 38.8 µM
  TGI: > 100 µM
[37]
  GI50: 33.1 µM
  TGI: > 100 µM
[38]
  GI50: 34.1 µM
  TGI: > 100 µM
[39]
  GI50: 24.9 µM
  TGI: 65.9 µM
[40]
  GI50: 19.6 µM
  TGI: 37.2 µM
[41]
  GI50: 44.8 µM
  TGI: > 100 µM
[42]
  GI50: 30.7 µM
  TGI: 96.8 µM
[43]
  GI50: 22.4 µM
  TGI: 46.4 µM
[44]
  GI50: 39.9 µM
  TGI: > 100 µM
[45]
  GI50: 31.9 µM
  TGI: > 100 µM
[46]
  GI50: 44 µM
  TGI: > 100 µM
[47]
  GI50: 20.9 µM
  TGI: 54.7 µM
[48]
  GI50: 20.3 µM
  TGI: 41.9 µM
[49]
  GI50: 24.2 µM
  TGI: 53.5 µM
[50]
  GI50: 24.1 µM
  TGI: 47.9 µM
[51]
  GI50: 25.9 µM
  TGI: 74.2 µM
[52]
  GI50: 21.1 µM
  TGI: 37.9 µM
[53]
  GI50: 17.6 µM
  TGI: 36.1 µM
[54]
  GI50: 22.3 µM
  TGI: 46.3 µM
[55]
  GI50: 24.2 µM
  TGI: 66.7 µM
[56]
  GI50: 21 µM
  TGI: 42.9 µM
[57]
  GI50: 35.2 µM
  TGI: > 100 µM
[58]
  GI50: 33.6 µM
  TGI: > 100 µM

## O=C(NOC[C@H](O)CO)c1ccc(F)c(F)c1Nc1ccc(I)cc1F
[1]
  GI50: < 0.01 µM
  TGI: 0.0395 µM
[2]
  GI50: 0.436 µM
  TGI: > 100 µM
[3]
  GI50: < 0.01 µM
  TGI: < 0.01 µM
[4]
  GI50: 7.02 µM
  TGI: > 100 µM
[5]
  GI50: 0.205 µM
  TGI: > 100 µM
[6]
  GI50: > 100 µM
  TGI: > 100 µM
[7]
  GI50: 6.17 µM
  TGI: 85.1 µM
[8]
  GI50: 11.8 µM
  TGI: > 100 µM
[9]
  GI50: < 0.01 µM
  TGI: < 0.01 µM
[10]
  GI50: < 0.01 µM
  TGI: 0.722 µM
[11]
  GI50: 0.471 µM
  TGI: > 100 µM
[12]
  GI50: 0.577 µM
  TGI: > 100 µM
[13]
  GI50: 39.8 µM
  TGI: > 100 µM
[14]
  GI50: 21.8 µM
  TGI: > 100 µM
[15]
  GI50: 2.73 µM
  TGI: > 100 µM
[16]
  GI50: 0.369 µM
  TGI: > 100 µM
[17]
  GI50: < 0.01 µM
  TGI: 45.8 µM
[18]
  GI50: 0.645 µM
  TGI: > 100 µM
[19]
  GI50: 0.0133 µM
  TGI: 0.492 µM
[20]
  GI50: < 0.01 µM
  TGI: 18.1 µM
[21]
  GI50: 15.3 µM
  TGI: > 100 µM
[22]
  GI50: 9.53 µM
  TGI: > 100 µM
[23]
  GI50: 22.3 µM
  TGI: > 100 µM
[24]
  GI50: < 0.01 µM
  TGI: > 100 µM
[25]
  GI50: 33.3 µM
  TGI: > 100 µM
[26]
  GI50: < 0.01 µM
  TGI: > 100 µM
[27]
  GI50: 26.4 µM
  TGI: > 100 µM
[28]
  GI50: 10.4 µM
  TGI: > 100 µM
[29]
  GI50: < 0.01 µM
  TGI: 0.391 µM
[30]
  GI50: 0.506 µM
  TGI: 24.1 µM
[31]
  GI50: 28.1 µM
  TGI: 92.7 µM
[32]
  GI50: 0.164 µM
  TGI: > 100 µM
[33]
  GI50: 1.34 µM
  TGI: 65.9 µM
[34]
  GI50: < 0.01 µM
  TGI: > 100 µM
[36]
  GI50: 0.749 µM
  TGI: > 100 µM
[37]
  GI50: 0.0196 µM
  TGI: 25.5 µM
[38]
  GI50: 0.689 µM
  TGI: > 100 µM
[39]
  GI50: 0.0116 µM
  TGI: > 100 µM
[40]
  GI50: 0.865 µM
  TGI: 10.9 µM
[41]
  GI50: 0.0974 µM
  TGI: > 100 µM
[42]
  GI50: < 0.01 µM
  TGI: < 0.01 µM
[43]
  GI50: 0.358 µM
  TGI: > 100 µM
[44]
  GI50: < 0.01 µM
  TGI: > 100 µM
[45]
  GI50: 3.46 µM
  TGI: > 100 µM
[46]
  GI50: 0.0573 µM
  TGI: 39.1 µM
[47]
  GI50: 33.7 µM
  TGI: > 100 µM
[48]
  GI50: < 0.01 µM
  TGI: 22.9 µM
[49]
  GI50: 0.0331 µM
  TGI: 0.934 µM
[50]
  GI50: < 0.01 µM
  TGI: 0.0136 µM
[51]
  GI50: 0.0375 µM
  TGI: 65.7 µM
[52]
  GI50: < 0.01 µM
  TGI: 18 µM
[59]
  GI50: < 0.01 µM
  TGI: 26.1 µM
[53]
  GI50: < 0.01 µM
  TGI: < 0.01 µM
[54]
  GI50: < 0.01 µM
  TGI: < 0.01 µM
[55]
  GI50: < 0.01 µM
  TGI: < 0.01 µM
[56]
  GI50: 11.8 µM
  TGI: > 100 µM
[57]
  GI50: 2.68 µM
  TGI: 74.2 µM
[58]
  GI50: 0.0373 µM
  TGI: > 100 µM
